Test results taken from the supplement of paper PMC11061612.

Legend:
[1] = system: L-428 (Hodgkin's Lymphoma); test: Bliss excess, mean over the matrix (fraction); higher = more synergy
In short: (§1)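 Bliss excess equals the observed combination effect minus the expected value EA + EB − EA·EB, where EA and EB are the effects of each agent alone. Combination Emax is the second-highest inhibition within the matrix. Inhibition was scaled from CellTiter-Glo 2.0 luminescence, with 0 set by vehicle wells and 1 by blank wells, after 72 hours of two-drug dosing of cells plated in 1536-well plates.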

[2] = system: ESS-1 (Other Solid Carcinomas); test: as above
In short: as §1

[3] = system: SAS (Oral Cavity Carcinoma); test: as above
In short: as §1

[4] = system: TGBC1TKB (Biliary Tract Carcinoma); test: as above
In short: as §1

[5] = system: BPH-1 (Non-Cancerous); test: as above
In short: as §1

[6] = system: BFTC-909 (Kidney Carcinoma); test: as above
In short: as §1

[7] = system: SNU-16 (Gastric Carcinoma); test: as above
In short: as §1

[8] = system: HuH-7 (Hepatocellular Carcinoma); test: as above
In short: as §1

[9] = system: HuCCT1 (Biliary Tract Carcinoma); test: as above
In short: as §1

[10] = system: HeLa (Cervical Carcinoma); test: as above
In short: as §1

[11] = system: KMRC-20 (Kidney Carcinoma); test: as above
In short: as §1

[12] = system: MPP-89 (Mesothelioma); test: as above
In short: as §1

[13] = system: NCI-H524 (Small Cell Lung Carcinoma); test: as above
In short: as §1

[14] = system: BE2-M17 (Neuroblastoma); test: as above
In short: as §1

[15] = system: Detroit562 (Head and Neck Carcinoma); test: as above
In short: as §1

[16] = system: TGBC1TKB (Biliary Tract Carcinoma); test: combination Emax (second highest fraction inhibited in the dose matrix, 72 h); higher = more inhibition; extreme values may be limits of the assay
In short: as §1

[17] = system: CAL-33 (Oral Cavity Carcinoma); test: as above
In short: as §1

[18] = system: OE21 (Esophageal Squamous Cell Carcinoma); test: as above
In short: as §1

[19] = system: KS-1 (Glioblastoma); test: as above
In short: as §1

[20] = system: BE-13 (T-Lymphoblastic Leukemia); test: as above
In short: as §1

SMILES | Bliss excess [1] | Bliss excess [2] | Bliss excess [3] | Bliss excess [4] | Bliss excess [5] | Bliss excess [6] | Bliss excess [7] | Bliss excess [8] | Bliss excess [9] | Bliss excess [10] | Bliss excess [11] | Bliss excess [12] | Bliss excess [13] | Bliss excess [14] | Bliss excess [15] | combination Emax [16] | combination Emax [17] | combination Emax [18] | combination Emax [19] | combination Emax [20]
CCN(CCO)CCCOc1ccc2c(Nc3cc(CC(=O)Nc4cccc(F)c4)[nH]n3)ncnc2c1 [AZD2811] + C=CCn1c(=O)c2cnc(Nc3ccc(N4CCN(C)CC4)cc3)nc2n1-c1cccc(C(C)(C)O)n1 [AZD1775] (first compound max 1 µM, partner max 1 µM) | 0.0106 | 0.042 | -0.0526 | -0.0195 | -0.0007 | 0.0293 | 0.0538 | -0.0232 | -0.0344 | 0.0278 | -0.0562 | -0.0173 | -0.0253 | 0.0436 | 0.05 | 0.234 | 0.877 | 0.468 | 0.481 | 0.982
CCN(CCO)CCCOc1ccc2c(Nc3cc(CC(=O)Nc4cccc(F)c4)[nH]n3)ncnc2c1 [AZD2811] + C[C@@H]1COCCN1C2=NC(=NC(=C2)C3(CC3)[S@](=N)(=O)C)C4=C5C=CNC5=NC=C4 [AZD6738] (first compound max 1 µM, 7x7, partner max 10 µM) | 0.0145 | -0.018 | -0.0354 | -0.0184 | -0.0111 | -0.0231 | -0.0281 | -0.0453 | -0.0767 | -0.0743 | -0.0667 | -0.0823 | -0.0399 | 0.0002 | -0.0108 | 0.383 | 0.936 | 0.666 | 0.576 | 0.732
CCN(CCO)CCCOc1ccc2c(Nc3cc(CC(=O)Nc4cccc(F)c4)[nH]n3)ncnc2c1 [AZD2811] + O=C(c1cc(Cc2n[nH]c(=O)c3ccccc23)ccc1F)N1CCN(C(=O)C2CC2)CC1 [Olaparib] (first compound max 1 µM, 7x7, partner max 10 µM) | 0.0277 | 0.021 | 0.0114 | -0.0368 | 0.0466 | 0.0468 | -0.0101 | -0.072 | -0.0187 | -0.0154 | 0.0017 | -0.0334 | -0.0602 | 0.0317 | 0.0133 | 0.0912 | 0.732 | 0.255 | 0.363 | 0.824
Cc1c2c(nn1C)CSCc1cc(n(C)n1)CSc1cc(c3ccccc3c1)OCCCc1c(C(=O)O)n(C)c3c-2c(Cl)ccc13 [AZD5991] + CC1(C)CCC(CN2CCN(c3ccc(C(=O)NS(=O)(=O)c4ccc(NCC5CCOCC5)c([N+](=O)[O-])c4)c(Oc4cnc5[nH]ccc5c4)c3)CC2)=C(c2ccc(Cl)cc2)C1 [Venetoclax] (first compound max 1 µM, 7x7, partner max 1 µM) | -0.0151 | -0.0082 | 0.0098 | -0.0252 | -0.0148 | -0.0001 | 0.0558 | -0.0272 | -0.0557 | 0.0343 | -0.0206 | -0.0065 | 0.0725 | 0.0276 | -0.0119 | 0.161 |  | 0.454 | 0.146 | 0.916
Cc1c2c(nn1C)CSCc1cc(n(C)n1)CSc1cc(c3ccccc3c1)OCCCc1c(C(=O)O)n(C)c3c-2c(Cl)ccc13 [AZD5991] + CN(C)CCCOc1ccc(-c2ccc3ncc4c(c3c2)n(C2CCOCC2)c(=O)n4C)cn1 [AZD0156] (first compound max 1 µM, 7x7, partner max 1 µM) | 0.0294 | 0.0027 | 0.0142 | -0.0332 | 0.0896 | 0.0101 | 0.0313 | 0.0316 | -0.04 | -0.0266 | -0.0036 |  | 0.0301 | 0.0023 | -0.0251 | 0.219 | 0.185 | 0.345 | 0.225 | 0.445
Cc1c2c(nn1C)CSCc1cc(n(C)n1)CSc1cc(c3ccccc3c1)OCCCc1c(C(=O)O)n(C)c3c-2c(Cl)ccc13 [AZD5991] + C[C@@H]1COCCN1C2=NC(=NC(=C2)C3(CC3)[S@](=N)(=O)C)C4=C5C=CNC5=NC=C4 [AZD6738] (first compound max 1 µM, 7x7, partner max 10 µM) | 0.023 | -0.0451 | -0.0367 | 0.0537 | 0.0039 | 0.0508 | 0.0167 | -0.0057 | 0.0206 | 0.0217 | -0.0153 | -0.0426 | -0.0395 | 0.0574 | 0.0364 | 0.403 | 0.901 | 0.844 | 0.587 | 
CS(=O)(=O)CCNCc1ccc(-c2ccc3ncnc(Nc4ccc(OCc5cccc(F)c5)c(Cl)c4)c3c2)o1 [Lapatinib] + NC1(c2ccc(-c3nc4ccn5c(=O)[nH]nc5c4cc3-c3ccccc3)cc2)CCC1 [MK-2206] (first compound max 10 µM, 7x7, partner max 10 µM) |  | 0.005 | 0.0044 | 0.0079 |  | -0.0279 | 0.0758 |  | -0.018 |  |  | -0.0391 | 0.0223 |  |  | 0.623 |  |  | 0.403 | 0.971
CCc1c2c(nc3ccc(O)cc13)-c1cc3c(c(=O)n1C2)COC(=O)[C@]3(O)CC [SN-38] + O=C(c1cc(Cc2n[nH]c(=O)c3ccccc23)ccc1F)N1CCN(C(=O)C2CC2)CC1 [Olaparib] (first compound max 0.3 µM, 7x7, partner max 10 µM) | 0.0367 | 0.0735 | 0.0501 | 0.0009 | 0.0501 | 0.0897 | 0.0005 |  | 0.0046 | 0.0232 |  | 0.0504 | 0.0488 | 0.0082 |  | 0.493 | 0.962 | 0.669 | 0.556 | 0.965
